How the values were obtained:
[1] = molecular target: T1, AKII-HDHII (AK activity) (Escherichia coli, UniProt P00562); assay: Inhibition of AK activity of clone 5 extract (metL, AKII-HDHII) by pathway end-products; format: biochemical, E. coli; details: 30 mM end-product; extract from clone 5
T1 construct: made in house; host or cells: E. coli BL21(DE3), pBT430-derived expression vector; sonicated cell extract of clone 5 (pBT718)
Description: (§1) Cultures were grown in TB medium containing ampicillin (100 mg/L) at 37° C. overnight. The cells were collected by centrifugation and resuspended in 1/25th the original culture volume in 50 mM NaCl; 50 mM Tris-Cl, pH 7.5; 1 mM EDTA, and frozen at -20° C., thawed at 37° C. and sonicated, in an ice-water bath, to lyse the cells. The lysate was centrifuged at 4° C. for 5 min at 12,000 rpm. The supernatant was removed and the pellet was resuspended in the above buffer.
(§2) Assay mix (for 12×1.0 mL or 48×0.25 mL assays):
(§3) Each 1.5 ml eppendorf assay tube contains: […]
(§4) Spin for 2 min in eppendorf centrifuge tube.
(§5) Two extracts also had high levels of AK enzyme activity. These two extracts were then tested for inhibition of AK or HDH activity by the pathway end-products, lys, thr and met.

[2] = molecular target: T2, AKII-HDHII (HDH activity) (Escherichia coli, UniProt P00562); assay: Inhibition of HDH activity of clone 5 extract (metL, AKII-HDHII) by pathway end-products; format: biochemical, E. coli; details: 30 mM end-product; extract from clone 5
T2 construct: made in house; host or cells: E. coli BL21(DE3), pBT430-derived expression vector; sonicated cell extract of clone 5 (pBT718)
T2 sequence (P00562 other isoform, or with tags, fused parts or gaps): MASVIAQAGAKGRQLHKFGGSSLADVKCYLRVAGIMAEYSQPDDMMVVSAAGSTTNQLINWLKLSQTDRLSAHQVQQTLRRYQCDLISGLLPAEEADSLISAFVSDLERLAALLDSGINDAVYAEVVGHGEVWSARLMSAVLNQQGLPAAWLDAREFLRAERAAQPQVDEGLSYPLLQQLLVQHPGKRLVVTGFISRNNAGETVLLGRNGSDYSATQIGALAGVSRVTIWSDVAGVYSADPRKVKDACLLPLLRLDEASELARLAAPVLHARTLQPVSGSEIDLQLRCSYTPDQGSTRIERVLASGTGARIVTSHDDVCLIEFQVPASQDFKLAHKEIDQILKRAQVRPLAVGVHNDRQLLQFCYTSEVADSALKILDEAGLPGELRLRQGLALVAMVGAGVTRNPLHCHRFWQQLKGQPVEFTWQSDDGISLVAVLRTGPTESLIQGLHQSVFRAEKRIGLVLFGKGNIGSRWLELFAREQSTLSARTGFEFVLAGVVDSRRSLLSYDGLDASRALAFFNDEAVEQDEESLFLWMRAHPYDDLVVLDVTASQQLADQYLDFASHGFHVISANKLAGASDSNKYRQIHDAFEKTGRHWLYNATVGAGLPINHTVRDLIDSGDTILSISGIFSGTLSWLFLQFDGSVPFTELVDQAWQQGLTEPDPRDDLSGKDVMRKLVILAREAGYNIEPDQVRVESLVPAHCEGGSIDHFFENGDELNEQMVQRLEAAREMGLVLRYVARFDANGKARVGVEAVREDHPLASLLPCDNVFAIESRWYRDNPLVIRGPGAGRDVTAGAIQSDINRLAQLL
Description: as §1
The supernatant fractions were assayed for HDH enzyme activities to identify clones expressing functional proteins. HDH activity was assayed as shown below: […]
Make Mixture of above reagents with amounts multiplied by number of assays. Use 0.9 mls of mix for 1 ml assay; 180 μl of mix for 0.2 ml assay in microtiter dish
to 1/2 the assay mix; remaining 1/2 lacks ASA to serve as blank
Add enzyme extract last to start reaction. Incubate at ~30° C.; monitor NADPH oxidation at […]. 1 unit oxidizes 1 μmol NADPH/min at 30° C. in the 1 ml reaction.
as §5

[3] = tested on: E. coli strain Gif106M1 transformed with pBT436; assay: Growth inhibition of Gif106M1 transformed with pBT436 on supplemented M9 media; format: cell-based; details: M9 media with arginine, isoleucine, ampicillin; reversed by threonine plus methionine
Source text: To establish that the cloned lysC gene was functional, pBT436 was transformed into E. coli strain Gif106M1 (E. coli Genetic Stock Center strain CGSC-5074) which has mutations in each of the three E. coli AK genes [Theze et al. (1974) J. Bacteriol. 117:133-143]. This strain lacks all AK activity and therefore requires diaminopimelate (a precursor to lysine which is also essential for cell wall biosynthesis), threonine and methionine.
Addition of lysine (or diaminopimelate which is readily converted to lysine in vivo) at a concentration of approximately 0.2 mM to the growth medium inhibits the growth of Gif106M1 transformed with pBT436.M9 media [see Sambrook et al. (1989) Molecular Cloning: a Laboratory Manual, Cold Spring Harbor Laboratory Press] supplemented with the arginine and isoleucine, required for Gif106M1 growth, and ampicillin, to maintain selection for the pBT436 plasmid, was used. This inhibition is reversed by addition of threonine plus methionine to the growth media. […] This property of pBT436-transformed Gif106M1 was used to select for mutations in lysC that encoded lysine-insensitive AKIII.

[4] = molecular target: T3, wild type AKIII (Escherichia coli, UniProt P08660); assay: Inhibition of wild type AKIII aspartokinase activity by lysine; format: biochemical, E. coli
T3 construct: made in house; host or cells: E. coli Gif106M1 transformed with pBT436 (the plasmid of the cloned wild type lysC gene)
T3 sequence (P08660 2-449): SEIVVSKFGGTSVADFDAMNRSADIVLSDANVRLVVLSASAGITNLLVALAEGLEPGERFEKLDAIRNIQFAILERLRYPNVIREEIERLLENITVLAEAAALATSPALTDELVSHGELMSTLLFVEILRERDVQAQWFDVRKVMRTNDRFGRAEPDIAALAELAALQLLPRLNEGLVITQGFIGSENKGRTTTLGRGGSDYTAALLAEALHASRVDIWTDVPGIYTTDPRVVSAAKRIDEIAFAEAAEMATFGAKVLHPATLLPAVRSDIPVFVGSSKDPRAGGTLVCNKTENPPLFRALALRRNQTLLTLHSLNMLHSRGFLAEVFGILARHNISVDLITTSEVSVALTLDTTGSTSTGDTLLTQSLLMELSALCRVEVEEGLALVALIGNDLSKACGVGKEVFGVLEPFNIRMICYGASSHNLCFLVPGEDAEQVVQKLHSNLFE
Description: Single colonies of Gif106M1 transformed with pBT436 were picked and resuspended in 200 μL of a mixture of 100 μL 1% lysine plus 100 μL of M9 media. The entire cell suspension containing 10^7 -10^8 cells was spread on a petri dish containing M9 media supplemented with the arginine, isoleucine, and ampicillin. Sixteen petri dishes were thus prepared. From 1 to 20 colonies appeared on 11 of the 16 petri dishes. One or two (if available) colonies were picked and retested for lysine resistance and from this nine lysine-resistant clones were obtained. Plasmid DNA was prepared from eight of these and re-transformed into Gif106M1 to determine whether the lysine resistance determinant was plasmid-borne. Six of the eight plasmid DNAs yielded lysine-resistant colonies. Three of these six carried lysC genes encoding AKIII that was uninhibited by 15 mM lysine, whereas wild type AKIII is 50% inhibited by 0.3-0.4 mM lysine and >90% inhibited by 1 mM lysine (see Example 2 for details).
as §2, §3, §4

[5] = tested on: lysine-insensitive AKIII (mutant lysC genes M2, M3, M4); assay: Inhibition by lysine of AKIII encoded by mutant lysC genes (lysine-resistant clones); format: biochemical, E. coli; details: 15 mM lysine; three of six lysine-resistant plasmids

T1 sequence (P00562 other isoform, or with tags, fused parts or gaps): as the sequence (P00562 other isoform, or with tags, fused parts or gaps) above

Row | SMILES | inhibition of AK activity [1] | inhibition of HDH activity [2] | concentration in the growth medium that inhibits growth [3] | inhibition at 1000 µM ([4]; read-out: inhibition of wild type AKIII) | IC50 ([4]; wild type AKIII from cloned lysC (pBT436), read-out: lysine concentration giving 50% inhibition of wild type AKIII) | inhibition of AKIII encoded by mutant lysC genes [5]
1 | CSCC[C@H](N)C(=O)O [met, methionine] | Neither the AK nor the HDH activity of the extract from clone 5 was inhibited | Neither the AK nor the HDH activity of the extract from clone 5 was inhibited | – | – | – | –
2 | NC(CCCC(N)C(=O)O)C(=O)O (centres unmarked) [diaminopimelate] | – | – | approximately 0.2 mM | – | – | –
3 | C[C@@H](O)[C@H](N)C(=O)O [thr, threonine] | Neither the AK nor the HDH activity of the extract from clone 5 was inhibited | Neither the AK nor the HDH activity of the extract from clone 5 was inhibited | – | – | – | –
4 | NCCCC[C@H](N)C(=O)O [lysine] | Neither the AK nor the HDH activity of the extract from clone 5 was inhibited | Neither the AK nor the HDH activity of the extract from clone 5 was inhibited | approximately 0.2 mM | > 90% | 300 to 400 µM | uninhibited

— patent US5912414A, “Nucleic acid fragments, chimeric genes and methods for increasing the methionine content of the seeds of plants” (priority 1996, dated 1999)
